Patent US7750165B2, “Metaxalone polymorphs” (Fresenius Kabi Oncology Limited, priority 2005, dated 2010)
“And” between values parts separate entries of the source, which are not always exact repeats. Equal values may be shown once. Read-outs that look alike come from different tables or passages of the source.

Assay: Bioavailability and pharmacokinetic study of crystalline Forms A and B of metaxalone, oral suspension, plasma by HPLC
Format: in vivo, female wistar rat
Design: AUCin / AUCt / AUCt Mean / AUCin Mean: unit not given here
Procedure: A study was undertaken to compare the bioavailability and pharmacokinetic profile of the two crystalline Forms A and B of metaxalone in female wistar rat under fasting condition. A suspension of metaxalone form A and Form B having a concentration of 15.0 mg/ml was prepared using 0.1% Tween-80 in 0.25% carboxy methyl cellulose (CMC). The formulation was used for dosing as such without any further dilution.
Twelve rats were taken, out of which six rats were administered form A crystals of Metaxalone and other six rats were adminstered form B crystals of Metaxalone, in different injection volumes based on body weight, resulting in dose of 150 mg/kg. A total thirteen (0.6 ml) blood samples were collected from each rat into prelabeled tubes containing EDTA solution, by retro-orbital bleeding under mild ether anesthesia. The blood samples were withdrawn at time points of 0 (prior to dosing), 15, 30 mins, 1, 1.5, 2.0, 4.0, 6.0, 8.0, 10.0, 12.0, 24 and 48 hrs post administration. The samples were centrifuged at 4000 rpm for 10 mins at room temperature. Seperated plasma samples were transferred into prelabeled tubes and stored upright in cyrobox. These cyroboxes were then transfered into a deep freezer maintained at −20° C. for the final storage until the completion of analysis.
HPLC system of Shimadzu LC—2010CHT series equipped with shimadzu UV-VIS detector, analytical column YMC Pack ODS C-18, 5 μm, (150×4.6 mm) and a data acquisition system (LC solution software) were used for the quantitative determination of metaxalone in rat plasma.
The results were plotted using the conventional AUC method to calculate pharmacokinetic ters (Cmax, Tmax and AUC (area under the curve, a measure of total bioavailability). The pharmacokinetic results for the crystalline form A and B are summarized in Table-V

[1] = Form A relative to Form B, per rat number 1-6, oral 150 mg/kg, 150 mg/kg
[2] = Mean of N=6 rats, female wistar rat, oral 150 mg/kg, 150 mg/kg
[3] = female wistar rats, fasting, oral 150 mg/kg, plasma, Mean ± SD, 150 mg/kg
[4] = female wistar rats, fasting, oral 150 mg/kg, plasma, Mean ± SD, listed as Metaxalone- Form A, 150 mg/kg
[5] = female wistar rats, oral 150 mg/kg
[6] = female, Wistar, rat, plasma, po, 150 mg/kg, female wistar rats, fasting, oral 150 mg/kg, Mean ± SD
[7] = individual rats 1-6, female wistar rat, oral 150 mg/kg, 150 mg/kg
[8] = individual rats 1-6, female wistar rat, oral 150 mg/kg, 150 mg/kg, in h
[9] = individual rats 1-6, female wistar rat, oral 150 mg/kg, 150 mg/kg, in µg/mL
[10] = female wistar rats, fasting, oral 150 mg/kg, plasma, Mean ± SD (second Table IV), listed as Metaxalone- Form B, 150 mg/kg
[11] = female wistar rats, fasting, oral 150 mg/kg, plasma, Mean ± SD, listed as Metaxalone- Form B, 150 mg/kg

## Cc1cc(C)cc(OCC2CNC(=O)O2)c1 (single isomer, unassigned) [Form A, 5-(3′,5′-dimethylphenoxy)methyl-2-oxazolidinone]
[1]
  AUCin A/B %: 328.5% and 110.5% and 69.0% and 37.7% and 291.3% and 120.9%
  AUCt A/B %: 196.7% and 84.4% and 73.7% and 40.4% and 255.3% and 88.1%
  Cmax A/B %: 111.2% and 77.4% and 89.4% and 90.9% and 103.7% and 85.0%
[2]
  AUCin Mean: 451.461
[3]
  Clobs: 6.164 ± 2.122 mL/min/kg
Female wistar rats, fasting, oral 150 mg/kg, plasma, Mean ± SD, listed as Form-A, 150 mg/kg
  Clobs: 6.164 ± 2.122 mL/min/kg
[4]
  Clobs: 6.164 ± 2.122 mL/min/kg
  Lambda z: 0.119 ± 0.07 h⁻¹
  Vzobs: 3.46602 ± 0.9788 L/kg
[5]
  bioavailability, based on the observed Cmax values: bioavailable
female, Wistar, rat, plasma, po, 150 mg/kg, Mean of N=6 rats, female wistar rat, oral 150 mg/kg, read-out: AUCt Mean
  AUC(0-t): 325 µg·h/mL
female, Wistar, rat, plasma, po, 150 mg/kg, Mean of N=6 rats, female wistar rat, oral 150 mg/kg, read-out: Cmax Mean
  Cmax: 37700 ng/mL
female, Wistar, rat, plasma, po, 150 mg/kg, Mean of N=6 rats, female wistar rat, oral 150 mg/kg, read-out: Tmax Mean
  Tmax: 1.5 h
[6]
  AUC(0-inf): 451 ± 166 µg·h/mL
  MRT last: 5.49 ± 1.8 h
  half-life: 7.25 ± 2.9 h
female, Wistar, rat, plasma, po, 150 mg/kg, female wistar rats, fasting, oral 150 mg/kg, Mean ± SD (second Table IV)
  AUC(0-inf): 451 ± 166 µg·h/mL
female, Wistar, rat, plasma, po, 150 mg/kg, female wistar rats, fasting, oral 150 mg/kg, plasma, Mean ± SD (second Table IV), read-out: AUClast
  AUC(0-t): 325 ± 110 µg·h/mL
female, Wistar, rat, plasma, po, 150 mg/kg, female wistar rats, fasting, oral 150 mg/kg, plasma, Mean ± SD, read-out: AUClast
  AUC(0-t): 325 ± 110 µg·h/mL
female, Wistar, rat, plasma, po, 150 mg/kg, female wistar rats, fasting, oral 150 mg/kg, plasma, Mean ± SD, read-out: Cmax
  Cmax: 37700 ± 4100 ng/mL
female, Wistar, rat, plasma, po, 150 mg/kg, female wistar rats, fasting, oral 150 mg/kg, plasma, Mean ± SD, read-out: Tmax
  Tmax: 1.5 ± 0.3 h
female, Wistar, rat, plasma, po, 150 mg/kg, female wistar rats, oral 150 mg/kg, mean ± SD, unit inferred
  MRT last: 5.49 ± 1.8 h
female, Wistar, rat, plasma, po, 150 mg/kg, individual rats 1-6, female wistar rat, oral 150 mg/kg, read-out: Cmax
  Cmax: 43100 ng/mL
[7]
  AUCin: 646.72 and 398.52 and 380.50 and 267.03 and 667.12 and 348.88
  AUCt: 371.39 and 259.03 and 283.70 and 252.67 and 530.31 and 251.62
[8]
  Tmax: 2.00 and 1.00
[9]
  Cmax: 33.77 and 38.46 and 39.32 and 39.57 and 31.90

## Cc1cc(C)cc(OCC2CNC(=O)O2)c1 (single isomer, unassigned) [Form B, 5-(3′,5′-dimethylphenoxy)methyl-2-oxazolidinone]
[2]
  AUCt Mean: 333.329
Mean of N=6 rats, female wistar rat, oral 150 mg/kg, 150 mg/kg, in h
  Tmax Mean: 2.083
Mean of N=6 rats, female wistar rat, oral 150 mg/kg, 150 mg/kg, in µg/mL
  Cmax Mean: 40.735
[10]
  AUCinf: 389.07 ± 200.6 µg·h/mL
  AUClast: 333.32 ± 159.9 µg·h/mL
[3]
  AUCinf: 389.07±200.6 hrμg/ml
  AUClast: 333.32±159.9 hrμg/ml
  Clobs: 7.8787 ± 3.578 mL/min/kg
  Cmax: 40730 ± 2800 ng/mL
  Half Life: 4.49 ± 1.7 h
  MRTlast: 5.50 ± 1.8 h
  Tmax: 2.08 ± 1.4 h
[11]
  Clobs: 7.8787 ± 3.578 mL/min/kg
  Lambda z: 0.172 ± 0.05 h⁻¹
  Vzobs: 2.65418 ± 0.4222 L/kg
[5]
  bioavailability, based on the observed Cmax values: bioavailable
Female wistar rats, oral 150 mg/kg, plasma, mean ± SD, unit not given, 150 mg/kg, in h
  MRTlast: 5.50±1.8
female, Wistar, rat, plasma, po, 150 mg/kg, Mean of N=6 rats, female wistar rat, oral 150 mg/kg, read-out: AUCin Mean
  AUC: 389 µg·h/mL
female, Wistar, rat, plasma, po, 150 mg/kg, female wistar rats, oral 150 mg/kg, plasma, mean ± SD, no unit printed for this value, read-out: mean Cmax
  Cmax: 40700 ± 2800 ng/mL
[7]
  AUCin: 196.86 and 360.78 and 551.70 and 707.50 and 229.04 and 288.56
  AUCt: 188.83 and 306.89 and 384.99 and 626.04 and 207.73 and 285.51
[8]
  Tmax: 1.00 and 4.00 and 1.50
[9]
  Cmax: 38.75 and 43.65 and 43.04 and 43.27 and 38.16 and 37.54
